Test system: serum uric acid (sUA) levels in hyperuricemic patients
Assay: PRESTO study: change in serum uric acid in hyperuricemic patients (baseline >=8 mg/dL), Tranilast twice daily for 1 or 3 months
Format: in vivo, human
Experimental: The PRESTO (Prevention of Restenosis with Tranilast and its Outcomes) study was a multicenter study of ˜11,500 patients undergoing percutaneous transluminal coronary revascularization (PTCR) with or without stenting for single or multiple vessels over a 9-month period. The study compared the composite clinical event rate of death, myocardial infarction, or need for ischemia-driven target vessel revascularization in patients treated with Tranilast (300 and 450 mg twice daily) for 1 or 3 months versus placebo. Description of the study protocol and patient population can be found in Holmes et al., The PRESTO (Prevention of Restenosis with Tranilast and its Outcomes) protocol: A double-blind, placebo-controlled trial, Am Heart J 2000; 139:23-31; and Holmes et al., Results of Prevention of REStenosis with Tranilast and its Outcomes (PRESTO) Trial, Circulation. 2002; 106:1243, both of which are incorporated by reference herein in their entirety.
Gout was a contraindication for patient enrollment in the PRESTO trial. Nevertheless, 1100 patients enrolled in the trial were identified with baseline hyperuricemia defined as initial serum uric acid (sUA) levels greater than or equal to 7 mg/dL. Of these, approximately 300 participants had baseline serum uric acid levels greater than or equal to 8 mg/dL. […] As indicated in FIG. 1 and Table 4, some patients were treated with placebo, some patients were treated with Tranilast for 4 weeks followed by placebo, and some patients were treated with Tranilast for 12 weeks.

COc1ccc(/C=C/C(=O)Nc2ccccc2C(=O)O)cc1OC [Tranilast, 2-[[3-(3,4-dimethoxyphenyl)-1-oxo-2-propenyl]amino]benzoic acid]
Change from Baseline in Uric Acid, Max (3M TRAN 300 mg, Follow-Up): 3.04 mg/dL
Change from Baseline in Uric Acid, Mean (SD) (3M TRAN 300 mg, Follow-Up): −0.00 (1.519) mg/dL
Change from Baseline in Uric Acid, Median (3M TRAN 300 mg, Follow-Up): -0.13 mg/dL
Change from Baseline in Uric Acid, Min (3M TRAN 300 mg, Follow-Up): -3.00 mg/dL
Change from Baseline in Uric Acid, Max (3M TRAN 300 mg, Post-PTCR): 1.90 mg/dL
Change from Baseline in Uric Acid, Mean (SD) (3M TRAN 300 mg, Post-PTCR): −1.81 (1.966) mg/dL
Change from Baseline in Uric Acid, Median (3M TRAN 300 mg, Post-PTCR): -1.58 mg/dL
Change from Baseline in Uric Acid, Min (3M TRAN 300 mg, Post-PTCR): -14.79 mg/dL
Change from Baseline in Uric Acid, Max (3M TRAN 300 mg, Week 1): 3.14 mg/dL
Change from Baseline in Uric Acid, Mean (SD) (3M TRAN 300 mg, Week 1): −2.96 (2.394) mg/dL
Change from Baseline in Uric Acid, Median (3M TRAN 300 mg, Week 1): -2.85 mg/dL
Change from Baseline in Uric Acid, Min (3M TRAN 300 mg, Week 1): -15.66 mg/dL
Change from Baseline in Uric Acid, Max (3M TRAN 300 mg, Week 2): 2.30 mg/dL
Change from Baseline in Uric Acid, Mean (SD) (3M TRAN 300 mg, Week 2): −2.98 (2.224) mg/dL
Change from Baseline in Uric Acid, Median (3M TRAN 300 mg, Week 2): -2.94 mg/dL
Change from Baseline in Uric Acid, Min (3M TRAN 300 mg, Week 2): -15.09 mg/dL
Change from Baseline in Uric Acid, Max (3M TRAN 300 mg, Week 3): 1.92 mg/dL
Change from Baseline in Uric Acid, Mean (SD) (3M TRAN 300 mg, Week 3): −2.92 (1.946) mg/dL
Change from Baseline in Uric Acid, Median (3M TRAN 300 mg, Week 3): -3.00 mg/dL
Change from Baseline in Uric Acid, Min (3M TRAN 300 mg, Week 3): -6.13 mg/dL
Change from Baseline in Uric Acid, Max (3M TRAN 300 mg, Week 4): 1.98 mg/dL
Change from Baseline in Uric Acid, Mean (SD) (3M TRAN 300 mg, Week 4): −2.83 (2.212) mg/dL
Change from Baseline in Uric Acid, Median (3M TRAN 300 mg, Week 4): -2.80 mg/dL
Change from Baseline in Uric Acid, Min (3M TRAN 300 mg, Week 4): -14.30 mg/dL
Change from Baseline in Uric Acid, Max (3M TRAN 300 mg, Week 6): 8.50 mg/dL
Change from Baseline in Uric Acid, Mean (SD) (3M TRAN 300 mg, Week 6): −2.75 (2.755) mg/dL
Change from Baseline in Uric Acid, Median (3M TRAN 300 mg, Week 6): -3.00 mg/dL
Change from Baseline in Uric Acid, Min (3M TRAN 300 mg, Week 6): -15.65 mg/dL
Change from Baseline in Uric Acid, Max (3M TRAN 300 mg, Week 8): 1.70 mg/dL
Change from Baseline in Uric Acid, Mean (SD) (3M TRAN 300 mg, Week 8): −2.76 (2.451) mg/dL
Change from Baseline in Uric Acid, Median (3M TRAN 300 mg, Week 8): -2.71 mg/dL
Change from Baseline in Uric Acid, Min (3M TRAN 300 mg, Week 8): -15.77 mg/dL
Change from Baseline in Uric Acid, Max (3M TRAN 300 mg, Week 10): 2.30 mg/dL
Change from Baseline in Uric Acid, Mean (SD) (3M TRAN 300 mg, Week 10): −2.97 (2.490) mg/dL
Change from Baseline in Uric Acid, Median (3M TRAN 300 mg, Week 10): -2.98 mg/dL
Change from Baseline in Uric Acid, Min (3M TRAN 300 mg, Week 10): -15.65 mg/dL
Change from Baseline in Uric Acid, Max (3M TRAN 300 mg, Week 12): 3.60 mg/dL
Change from Baseline in Uric Acid, Mean (SD) (3M TRAN 300 mg, Week 12): −2.74 (2.634) mg/dL
Change from Baseline in Uric Acid, Median (3M TRAN 300 mg, Week 12): -2.69 mg/dL
Change from Baseline in Uric Acid, Min (3M TRAN 300 mg, Week 12): -16.02 mg/dL
Change from Baseline in Uric Acid, Max (3M TRAN 450 mg, Follow-Up): 1.80 mg/dL
Change from Baseline in Uric Acid, Mean (SD) (3M TRAN 450 mg, Follow-Up): −0.67 (1.277) mg/dL
Change from Baseline in Uric Acid, Median (3M TRAN 450 mg, Follow-Up): -0.70 mg/dL
Change from Baseline in Uric Acid, Min (3M TRAN 450 mg, Follow-Up): -2.90 mg/dL
Change from Baseline in Uric Acid, Max (3M TRAN 450 mg, Post-PTCR): 1.70 mg/dL
Change from Baseline in Uric Acid, Mean (SD) (3M TRAN 450 mg, Post-PTCR): −2.16 (1.577) mg/dL
Change from Baseline in Uric Acid, Median (3M TRAN 450 mg, Post-PTCR): -1.90 mg/dL
Change from Baseline in Uric Acid, Min (3M TRAN 450 mg, Post-PTCR): -7.34 mg/dL
Change from Baseline in Uric Acid, Max (3M TRAN 450 mg, Week 1): 0.90 mg/dL
Change from Baseline in Uric Acid, Mean (SD) (3M TRAN 450 mg, Week 1): −3.84 (1.839) mg/dL
Change from Baseline in Uric Acid, Median (3M TRAN 450 mg, Week 1): -3.99 mg/dL
Change from Baseline in Uric Acid, Min (3M TRAN 450 mg, Week 1): -8.79 mg/dL
Change from Baseline in Uric Acid, Max (3M TRAN 450 mg, Week 2): 0.92 mg/dL
Change from Baseline in Uric Acid, Mean (SD) (3M TRAN 450 mg, Week 2): −4.05 (1.861) mg/dL
Change from Baseline in Uric Acid, Median (3M TRAN 450 mg, Week 2): -4.56 mg/dL
Change from Baseline in Uric Acid, Min (3M TRAN 450 mg, Week 2): -8.72 mg/dL
Change from Baseline in Uric Acid, Max (3M TRAN 450 mg, Week 3): 1.50 mg/dL
Change from Baseline in Uric Acid, Mean (SD) (3M TRAN 450 mg, Week 3): −2.84 (2.227) mg/dL
Change from Baseline in Uric Acid, Median (3M TRAN 450 mg, Week 3): -3.79 mg/dL
Change from Baseline in Uric Acid, Min (3M TRAN 450 mg, Week 3): -5.79 mg/dL
Change from Baseline in Uric Acid, Max (3M TRAN 450 mg, Week 4): 1.43 mg/dL
Change from Baseline in Uric Acid, Mean (SD) (3M TRAN 450 mg, Week 4): −3.70 (2.190) mg/dL
Change from Baseline in Uric Acid, Median (3M TRAN 450 mg, Week 4): -3.90 mg/dL
Change from Baseline in Uric Acid, Min (3M TRAN 450 mg, Week 4): -8.40 mg/dL
Change from Baseline in Uric Acid, Max (3M TRAN 450 mg, Week 6): 2.70 mg/dL
Change from Baseline in Uric Acid, Mean (SD) (3M TRAN 450 mg, Week 6): −3.89 (2.265) mg/dL
Change from Baseline in Uric Acid, Median (3M TRAN 450 mg, Week 6): -4.39 mg/dL
Change from Baseline in Uric Acid, Min (3M TRAN 450 mg, Week 6): -8.69 mg/dL
Change from Baseline in Uric Acid, Max (3M TRAN 450 mg, Week 8): 1.40 mg/dL
Change from Baseline in Uric Acid, Mean (SD) (3M TRAN 450 mg, Week 8): −3.65 (2.104) mg/dL
Change from Baseline in Uric Acid, Median (3M TRAN 450 mg, Week 8): -3.83 mg/dL
Change from Baseline in Uric Acid, Min (3M TRAN 450 mg, Week 8): -7.16 mg/dL
Change from Baseline in Uric Acid, Max (3M TRAN 450 mg, Week 10): 1.50 mg/dL
Change from Baseline in Uric Acid, Mean (SD) (3M TRAN 450 mg, Week 10): −3.73 (2.306) mg/dL
Change from Baseline in Uric Acid, Median (3M TRAN 450 mg, Week 10): -4.10 mg/dL
Change from Baseline in Uric Acid, Min (3M TRAN 450 mg, Week 10): -8.60 mg/dL
Change from Baseline in Uric Acid, Max (3M TRAN 450 mg, Week 12): 0.50 mg/dL
Change from Baseline in Uric Acid, Mean (SD) (3M TRAN 450 mg, Week 12): −3.79 (2.065) mg/dL
Change from Baseline in Uric Acid, Median (3M TRAN 450 mg, Week 12): -4.30 mg/dL
Change from Baseline in Uric Acid, Min (3M TRAN 450 mg, Week 12): -8.12 mg/dL
serum uric acid levels in patients treated with Tranilast (analysis of PRESTO data, 300 and 450 mg twice daily): markedly decreased
